Test results from patent publication US10125126B2, “N-cycloalkyl-N-[(heterocyclylphenyl)methylene]-(thio)carboxamide derivatives” (BAYER CROPSCIENCE AG, priority 2012, dated 2018).

How the values were obtained:
[1] = log P by HPLC on a reversed-phase column (C 18), EEC Directive 79/831 Annex V.A8; type: physicochemical; conditions: HPLC on reversed-phase column (C 18), 40° C., 0.1% aqueous formic acid and acetonitrile, linear gradient 10% to 90% acetonitrile
Outline: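 40° C; 0.1% aq. formic acid/acetonitrile, linear gradient 10→90% acetonitrile. Calibration: unbranched alkan-2-ones (C3–C16), known log P. log P from retention time, linear interpolation between neighbouring alkanones. lambda-max from UV 200–400 nm at peak maxima.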

Alternaria brassicae = experiment: In vivo preventive test on Alternaria brassicae (leaf spot on radish); conditions: 500 ppm of active ingredient; radish plants; 6 days after contamination
Procedure: In Vivo Preventive Test on Alternaria brassicae (Leaf Spot on Radish) […] Radish plants (“Pernod Clair” variety), sown in starter cups on a 50/50 peat soil pozzolana substrate and grown at 17° C., are treated at the cotyledon stage by spraying with the active ingredient prepared as described above. Plants, used as controls, are treated with the mixture of acetone/tween/DMSO/water not containing the active material. After 24 hours, the plants are contaminated by spraying the cotyledons with an aqueous suspension of Alternaria brassicae spores (50 000 spores per mL). The spores are collected from a 15-day-old culture. The contaminated radish plants are incubated at 20° C. and at 100% relative humidity. Grading (% of efficacy) is carried out 6 days after the contamination, in comparison with the control plants.

Botrytis cinerea = experiment: In vivo preventive test on Botrytis cinerea (grey mould); conditions: gherkin plants, 4 to 5 days after contamination
Procedure: In Vivo Preventive Test on Botrytis cinerea (Grey Mould) […] Gherkin plants (“Vert petit de Paris” variety), sown in starter cups on a 50/50 peat soil pozzolana substrate and grown at 24° C., are treated at the Z11 cotyledon stage by spraying with the active ingredient prepared as described above. Plants, used as controls, are treated with the mixture of acetone/tween/DMSO/water not containing the active material. After 24 hours, the plants are contaminated by spraying the cotyledons with an aqueous suspension of cryopreserved Botrytis cinerea spores (50 000 spores per mL). The spores are suspended in a nutrient solution composed of 10 g/L of PDB, 50 g/L of D-Fructose, 2 g/L of NH4NO3 and 1 g/L of KH2PO4. The contaminated gherkin plants are incubated at 17° C. and at 90% relative humidity. Grading (% of efficacy) is carried out 4 to 5 days after the contamination, in comparison with the control plants.

Puccinia recondita = experiment: In vivo preventive test on Puccinia recondita (brown rust on wheat); conditions: 500 ppm of active ingredient; wheat plants; 12 days after contamination
Outline: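 Wheat plants ("Scipion") at 1-leaf stage, grown at 22° C, were sprayed with compound, then inoculated 24 h later with Puccinia recondita spores (100 000 spores per mL). Efficacy (%) graded 12 days after inoculation relative to solvent-treated controls.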

Septoria tritici = experiment: In vivo preventive test on Septoria tritici (wheat); conditions: 500 ppm of active ingredient; wheat plants; 24 days after contamination
Outline: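 Scipion wheat grown at 22° C, sprayed at 1-leaf stage (10 cm); controls received acetone/tween/DMSO/water without active. Inoculated 24 h later with S. tritici spores (500 000/mL), held 72 h at 18° C, 100% RH, then 21 days at 90% RH. % efficacy vs controls scored 24 days post-inoculation.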

Sphaerotheca fuliginea = experiment: In vivo preventive test on Sphaerotheca fuliginea (powdery mildew on cucurbits); conditions: 500 ppm of active ingredient; gherkin plants; 12 days after contamination
Outline: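 Gherkin plants ("Vert petit de Paris") grown at 24 °C were sprayed at cotyledon stage Z11; controls received acetone/tween/DMSO/water without active. Inoculation 24 h later by spraying cotyledons with 100 000 spores/mL. Efficacy (%) graded 12 days post-contamination versus controls.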

Uromyces appendiculatus = experiment: In vivo preventive test on Uromyces appendiculatus (bean rust); conditions: bean plants, 11 days after contamination
Outline: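 Saxa bean plants at 2-leaf stage, grown at 24° C., sprayed preventively with compound; 24 h later inoculated with U. appendiculatus spores (150 000 spores per mL). Percent efficacy graded 11 days after inoculation versus solvent-treated controls.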

Pyrenophora teres = experiment: In vivo preventive test on Pyrenophora teres (barley); conditions: barley plants, 14 days after contamination
Procedure: In Vivo Preventive Test on Pyrenophora teres (Barley) […] Barley plants (“Plaisant” variety), sown in starter cups on a 50/50 peat soil pozzolana substrate and grown at 22° C., are treated at the 1 leaf stage (10 cm height) by spraying with the active ingredient prepared as described above. Plants, used as controls, are treated with the mixture of acetone/tween/DMSO/water not containing the active material. After 24 hours, the plants are contaminated by spraying the leaves with an aqueous suspension of Pyrenophora teres spores (12 000 spores per mL). The spores are collected from a 12-day-old culture. […] Grading (% of efficacy) is carried out 14 days after the contamination, in comparison with the control plants.

logP [1]	SMILES	Efficacy (Alternaria brassicae) [%]	Efficacy (Botrytis cinerea; 500 ppm of active ingredient) [%]	Efficacy (Puccinia recondita) [%]	Efficacy (Septoria tritici) [%]	Efficacy (Sphaerotheca fuliginea) [%]	Efficacy (Uromyces appendiculatus; 500 ppm of active ingredient) [%]	Efficacy (Pyrenophora teres; 500 ppm of active ingredient) [%]	Efficacy (Pyrenophora teres; 100 ppm of active ingredient) [%]	Efficacy (Uromyces appendiculatus; 100 ppm of active ingredient) [%]	Efficacy (Botrytis cinerea; 100 ppm of active ingredient) [%]
2.34	Cn1cc(-c2ccccc2CN(C(=O)c2c(C(F)F)nn(C)c2F)C2CC2)cn1 [I.54]	83	97	80	100	95	97				
3.64	Cn1nc(C(F)F)c(C(=O)N(Cc2cc(Cl)ccc2-c2ccoc2)C2CC2)c1F [I.28]	96		94	97		99	79			
4.92	Cn1nc(C(F)F)c(C(=O)N(Cc2ccc(Cl)cc2-c2csc3ccccc23)C2CC2)c1F [I.159]		100		88	100	84		75		
4.06	Cn1nc(C(F)F)c(C(=O)N(Cc2cc(F)ccc2-c2coc3ccccc23)C2CC2)c1F [I.129]	97	92		90	100	96	86			
4.39	Cn1nc(C(F)F)c(C(=O)N(Cc2cc(F)ccc2-c2csc3ccccc23)C2CC2)c1F [I.154]	75		75	96	98		71			
4.83	Cn1nc(C(F)F)c(C(=O)N(Cc2cc(-c3ccc(Cl)s3)ccc2Cl)C2CC2)c1F [I.143]		98	88	100	100		79		93	
4.51	Cc1csc(-c2ccc(Cl)cc2CN(C(=O)c2c(C(F)F)nn(C)c2F)C2CC2)c1 [I.103]		98	95	95	100	94	95			
4.44	Cn1nc(C(F)F)c(C(=O)N(Cc2cc(Cl)ccc2-c2coc3ccccc23)C2CC2)c1F [I.130]	96		81	93	100	85	79			
4.69	Cn1nc(C(F)F)c(C(=S)N(Cc2cc(Cl)ccc2-c2cccs2)C2CC2)c1F [I.74]	83	100	94		100	100				
4.21	Cn1nc(C(F)F)c(C(=S)N(Cc2ccccc2-c2ccsc2)C2CC2)c1F [I.73]		100	100		100	100	71			
3.99	CC(C)c1ccc(-c2ccn(C)c2)cc1CN(C(=O)c1c(C(F)F)nn(C)c1F)C1CC1 [I.50]	96	99	100	97	100	99	100			
4.34	Cc1cscc1-c1ccc(Cl)cc1CN(C(=O)c1c(C(F)F)nn(C)c1F)C1CC1 [I.104]	83	93	95	88	100	100	70			
3.52	COc1ccsc1-c1ccccc1CN(C(=O)c1c(C(F)F)nn(C)c1F)C1CC1 [I.120]			100	80	100	100	79			
3.96	Cn1nc(C(F)F)c(C(=O)N(Cc2ccccc2-c2coc3ccccc23)C2CC2)c1F [I.131]	91	100	75	96	98		93			
3.25	Cn1cc(C(=O)N(Cc2ccccc2-c2cccs2)C2CC2)c(C(F)F)n1 [I.72]	70			80	90	83				
3.92	Cn1nc(C(F)F)c(C(=O)N(Cc2ccccc2-c2ccsc2Cl)C2CC2)c1F [I.138]		100	94	100	100	100	79			
4.09	Cc1csc(-c2ccc(F)cc2CN(C(=O)c2c(C(F)F)nn(C)c2F)C2CC2)c1 [I.101]	83	99	100	100	100	100	95			
4.04	Cn1nc(C(F)F)c(C(=O)N(Cc2cc(F)ccc2-c2ccsc2Cl)C2CC2)c1F [I.136]	70		98	93	100	100	86			
4.41	Cn1nc(C(F)F)c(C(=O)N(Cc2cc(Cl)ccc2-c2ccsc2Cl)C2CC2)c1F [I.137]	70		88	97	100		79			
3.81	Cn1nc(C(F)F)c(C(=O)N(Cc2cc(-c3ccco3)ccc2Cl)C2CC2)c1F [I.34]								81		99
3.94	Cc1cscc1-c1ccc(F)cc1CN(C(=O)c1c(C(F)F)nn(C)c1F)C1CC1 [I.102]	83	94	100	95	100	100				
3.55	Cn1nc(C(F)F)c(C(=O)N(Cc2ccccc2-c2ccsc2)C2CC2)c1F [I.67]			100	97	100	100	79			
3.87	Cn1cc(C(=O)N(Cc2ccccc2-c2ccc(Cl)s2)C2CC2)c(C(F)F)n1 [I.140]	90			96		73				
4.11	Cn1nc(C(F)F)c(C(=O)N(Cc2cc(Cl)ccc2-c2cccs2)C2CC2)c1F [I.68]	71		94	83	94	100				
3.23	Cn1nc(C(F)F)c(C(=O)N(Cc2ccccc2-c2ccoc2)C2CC2)c1F [I.29]	82	100	81	96		100	93			
